Series [1] has as its system Rattus norvegicus. The experiment in a line: Anti-inflammatory activity in Rattus norvegicus Wistar (rat) assessed as inhibition of carrageenan-induced edema volume at 62.8 mg/kg, po measured after 30 min. The series is classed as functional. The conditions noted are these: 0.5 h. In general terms: In the carrageenan paw model, swelling and tenderness develop within hours.

Series [2] deals with Rattus norvegicus. Kind of series: Gastrointestinal toxicity in Rattus norvegicus Wistar (rat) assessed as ulcer at 62.8 mg/kg, po. The series is classed as organism-based. The arrangement: dose 62.8 mg/kg, route oral. The note with it: in vivo.
Series [3] concerns Rattus norvegicus. Kind of series: Anti-inflammatory activity in Rattus norvegicus Wistar (rat) assessed as inhibition of carrageenan-induced edema volume at 62.8 mg/kg, po measured after 60 min. The series is classed as functional. The note with it: 1 h.
The subject of series [4] is Mus musculus. The experiment in a line: Analgesic activity in Mus musculus (mouse) assessed as inhibition of acetic acid-induced writhing at 62.8 mg/kg, po pretreated 1 hr before acetic acid challenge. The series is classed as functional. For orientation: An intraperitoneal irritant provokes the stretching counted in writhing tests.
Series [5] in a line: Prodrug conversion in acetate buffer assessed as half-life for hydrolysis at pH 3. The series is classed as physicochemical.
Series [6] can be described thus: Prodrug conversion in acetate buffer assessed as half-life for hydrolysis at pH 4. The series is classed as physicochemical.
Series [7] relates to Rattus norvegicus. Kind of series: Anti-inflammatory activity in Rattus norvegicus Wistar (rat) assessed as inhibition of carrageenan-induced edema volume at 62.8 mg/kg, po measured after 90 min. The series is classed as functional. The conditions noted are these: 1.5 h.
A short description of series [8]: Prodrug conversion in acetate buffer assessed as half-life for hydrolysis at pH 5. The series is classed as physicochemical.
The test system of series [9] is Rattus norvegicus. The experiment in a line: Anti-inflammatory activity in Rattus norvegicus Wistar (rat) assessed as inhibition of carrageenan-induced edema volume at 62.8 mg/kg, po measured after 120 min. The series is classed as functional. The note with it: 2 h.
Series [10] is described as follows: Prodrug conversion in phosphate buffer assessed as half-life for hydrolysis at pH 7.4. The series is classed as physicochemical.
For series [11], the system named is Rattus norvegicus. The experiment in a line: Anti-inflammatory activity in Rattus norvegicus Wistar (rat) assessed as inhibition of carrageenan-induced edema volume at 63.2 mg/kg, po measured after 30 min. The conditions noted are these: 0.5 h. The series is classed as functional.
The subject of series [12] is Rattus norvegicus. The experiment in a line: Gastrointestinal toxicity in Rattus norvegicus Wistar (rat) assessed as ulcer at 63.2 mg/kg, po. The conditions noted are these: in vivo. More on the design: dose 63.2 mg/kg, route oral. The series is classed as organism-based.
The subject of series [13] is Rattus norvegicus. Kind of series: Anti-inflammatory activity in Rattus norvegicus Wistar (rat) assessed as inhibition of carrageenan-induced edema volume at 63.2 mg/kg, po measured after 60 min. The conditions noted are these: 1 h. The series is classed as functional.
The test system of series [14] is Mus musculus. Kind of series: Analgesic activity in Mus musculus (mouse) assessed as inhibition of acetic acid-induced writhing at 63.2 mg/kg, po pretreated 1 hr before acetic acid challenge. The series is classed as functional.
The test system of series [15] is Rattus norvegicus. Kind of series: Anti-inflammatory activity in Rattus norvegicus Wistar (rat) assessed as inhibition of carrageenan-induced edema volume at 63.2 mg/kg, po measured after 90 min. The series is classed as functional. The conditions noted are these: 1.5 h.
In series [16] the test system is Rattus norvegicus. The experiment in a line: Anti-inflammatory activity in Rattus norvegicus Wistar (rat) assessed as inhibition of carrageenan-induced edema volume at 63.2 mg/kg, po measured after 120 min. The series is classed as functional. The conditions noted are these: 2 h.
Series [17] has as its system Rattus norvegicus. Kind of series: Anti-inflammatory activity in Rattus norvegicus Wistar (rat) assessed as inhibition of carrageenan-induced edema volume at 66.0 mg/kg, po measured after 120 min. The series is classed as functional. The note with it: 2 h.
The test system of series [18] is Rattus norvegicus. The experiment in a line: Gastrointestinal toxicity in Rattus norvegicus Wistar (rat) assessed as ulcer at 66 mg/kg, po. The series is classed as organism-based. More on the design: dose 66 mg/kg, route oral. The conditions noted are these: in vivo.
Series [19] relates to Rattus norvegicus. Kind of series: Anti-inflammatory activity in Rattus norvegicus Wistar (rat) assessed as inhibition of carrageenan-induced edema volume at 66.0 mg/kg, po measured after 60 min. The series is classed as functional. The conditions noted are these: 1 h.
The subject of series [20] is Rattus norvegicus. Kind of series: Anti-inflammatory activity in Rattus norvegicus Wistar (rat) assessed as inhibition of carrageenan-induced edema volume at 66.0 mg/kg, po measured after 90 min. The series is classed as functional. The note with it: 1.5 h.
Series [21] relates to Mus musculus. The experiment in a line: Analgesic activity in Mus musculus (mouse) assessed as inhibition of acetic acid-induced writhing at 66 mg/kg, po pretreated 1 hr before acetic acid challenge. The series is classed as functional.
Series [22] has as its system Rattus norvegicus. Kind of series: Anti-inflammatory activity in Rattus norvegicus Wistar (rat) assessed as inhibition of carrageenan-induced edema volume at 66.0 mg/kg, po measured after 30 min. The series is classed as functional. The conditions noted are these: 0.5 h.
The subject of series [23] is Rattus norvegicus. Kind of series: Anti-inflammatory activity in Rattus norvegicus Wistar (rat) assessed as inhibition of carrageenan-induced edema volume at 66.4 mg/kg, po measured after 30 min. The series is classed as functional. The conditions noted are these: 0.5 h.
In series [24] the test system is Mus musculus. The experiment in a line: Analgesic activity in Mus musculus (mouse) assessed as inhibition of acetic acid-induced writhing at 66.4 mg/kg, po pretreated 1 hr before acetic acid challenge. The series is classed as functional.
The subject of series [25] is Rattus norvegicus. The experiment in a line: Anti-inflammatory activity in Rattus norvegicus Wistar (rat) assessed as inhibition of carrageenan-induced edema volume at 66.4 mg/kg, po measured after 90 min. The series is classed as functional. The conditions noted are these: 1.5 h.
Series [26] concerns Rattus norvegicus. The experiment in a line: Anti-inflammatory activity in Rattus norvegicus Wistar (rat) assessed as inhibition of carrageenan-induced edema volume at 66.4 mg/kg, po measured after 120 min. The series is classed as functional. The conditions noted are these: 2 h.
In series [27] the test system is Rattus norvegicus. Kind of series: Gastrointestinal toxicity in Rattus norvegicus Wistar (rat) assessed as ulcer at 66.4 mg/kg, po. The series is classed as organism-based. The arrangement: dose 66.4 mg/kg, route oral. The conditions noted are these: in vivo.
The test system of series [28] is Rattus norvegicus. The experiment in a line: Anti-inflammatory activity in Rattus norvegicus Wistar (rat) assessed as inhibition of carrageenan-induced edema volume at 66.4 mg/kg, po measured after 60 min. The series is classed as functional. The conditions noted are these: 1 h.
The species entered for series [29] is Rattus norvegicus. Kind of series: animal or person. The note with it: Wistar, po, 1.5 h, read-out: INH.
Description: Anti-inflammatory activity in Rattus norvegicus Wistar (rat) assessed as inhibition of carrageenan-induced edema volume at 50.0 mg/kg, po measured after 90 min
The species named for series [30] is Rattus norvegicus. Kind of series: animal or person. The note with it: Wistar, po, 2 h, read-out: INH.
Description: Anti-inflammatory activity in Rattus norvegicus Wistar (rat) assessed as inhibition of carrageenan-induced edema volume at 50.0 mg/kg, po measured after 120 min
For series [31], the species on record is Mus musculus. The experiment in a line: animal or person. The note with it: po, read-out: INH.
Description: Analgesic activity in Mus musculus (mouse) assessed as inhibition of acetic acid-induced writhing at 50 mg/kg, po pretreated 1 hr before acetic acid challenge
Series [32] is filed under the species Rattus norvegicus. The experiment in a line: animal or person. The note with it: Wistar, po, 1 h, read-out: INH.
Description: Anti-inflammatory activity in Rattus norvegicus Wistar (rat) assessed as inhibition of carrageenan-induced edema volume at 50.0 mg/kg, po measured after 60 min
The species entered for series [33] is Rattus norvegicus. The experiment in a line: animal or person. The conditions noted are these: Wistar, po, 0.5 h, read-out: INH.
Description: Anti-inflammatory activity in Rattus norvegicus Wistar (rat) assessed as inhibition of carrageenan-induced edema volume at 50.0 mg/kg, po measured after 30 min

SMILES strings stand for the structures.

Consider `COc1ccc2cc(C(C)C(=O)OCC(OC(C)=O)C(OC(C)=O)C(OC(C)=O)C(/C=N/CC(=O)O)OC(C)=O)ccc2c1` (stereo not given), for which the inhibition in vivo at 62.8 mg/kg is 58% in the series on Rattus norvegicus [1]; 37% with Rattus norvegicus [3]; 63.6% in the series with Mus musculus [4]; 58% with Rattus norvegicus [7]; 76% in the series on Rattus norvegicus [9]. Moreover, in the series on Rattus norvegicus [2], the Activity result is listed as “Non-toxic”. Also, the t1/2 is 115 h in [5], 44 h in [6], 88 h in series [8] and 25 h in [10].
`COc1ccc2cc(C(C)C(=O)OCC(OC(C)=O)C(OC(C)=O)C(OC(C)=O)C(/C=N/[C@@H](C)C(=O)O)OC(C)=O)ccc2c1` (stereo not given in full): the inhibition in vivo at 63.2 mg/kg in the series on Rattus norvegicus [11] was 62%; in the series with Rattus norvegicus [13], 29%; with Mus musculus [14] it was 98.2%; with Rattus norvegicus [15] it was 49%; in the series with Rattus norvegicus [16] it was 67%. In addition, the Activity result in the series with Rattus norvegicus [12] is “Non-toxic”. Moreover, the t1/2 in series [5] is 15 h; in series [6] it was 15 h; in series [8], 77 h; in series [10] it was 22 h.
`COc1ccc2cc(C(C)C(=O)OCC(OC(C)=O)C(OC(C)=O)C(OC(C)=O)C(/C=N/[C@H](C(=O)O)C(C)C)OC(C)=O)ccc2c1` (stereo not given in full): the inhibition in vivo at 66 mg/kg in the series with Rattus norvegicus [17] was determined as 64%; with Rattus norvegicus [19] it was 19%; in the series on Rattus norvegicus [20] it was 43%; in the series on Mus musculus [21] it was 63.6%; in the series on Rattus norvegicus [22], 30%. In the series with Rattus norvegicus [18], the Activity entry is recorded as “Non-toxic”. Besides, the t1/2 in series [5] came out at 44 h; in series [6], 115 h; in [8], 88 h; in series [10] it was 19 h.
Take `COc1ccc2cc(C(C)C(=O)OCC(OC(C)=O)C(OC(C)=O)C(OC(C)=O)C(/C=N/[C@@H](CS)C(=O)O)OC(C)=O)ccc2c1` (stereo not given in full): the inhibition in vivo at 66.4 mg/kg in the series on Rattus norvegicus [23] stood at 42%; in the series on Mus musculus [24] it was 30.4%; in the series on Rattus norvegicus [25], 57%; in the series on Rattus norvegicus [26], 67%; with Rattus norvegicus [28] it was 30%. The t1/2 came out at 44 h in [5], 15 h in series [6], 77 h in [8] and 30 h in series [10]. Also, in the series on Rattus norvegicus [27], the Activity result is listed as “Non-toxic”.
In the case of `COc1ccc2cc([C@H](C)C(=O)O)ccc2c1` [NAPROXEN], the inhibition in vivo at 50 mg/kg in the series filed under Rattus norvegicus [29] stood at 42%; in the series listed under Rattus norvegicus [30], 58%; in the series listed under Mus musculus [31] it was 61.4%; in the series listed under Rattus norvegicus [32], 32%; in the series filed under Rattus norvegicus [33], 10%.

The record behind these values is ChEMBL document CHEMBL3045532, “Synthesis and evaluation of novel prodrugs of naproxen” (Med Chem Res, 2011).
